Test results: patent US20180078576A1, “SULPHATED XYLANS FOR TREATMENT OR PROPHYLAXIS OF RESPIRATORY DISEASES” (Paradigm Biopharmaceuticals Limited, priority 2007, published 2018)
Marks after values point to notes of the source that are not given here.

Tests used:
[1] = tested on: Guinea-pigs sensitized to ovalbumin; experiment: Guinea pig model of asthma, airway hyper-reactivity 24 h after OVA challenge; type: in vivo; conditions: Dexamethasone 15 mg/kg, glycan compounds 10 mg/kg, intratracheal microspray
Description: A guinea pig model of asthma was used. Guinea-pigs (8 per group) were sensitized to ovalbumin by two intraperitoneal injections of ovalbumin (grade V, 20 μg) in aluminium hydroxide gel on Days 1 and 11. On day 20 (24 hours prior to assessing airway hyper-reactivity (AHR)) each animal received a challenge dose of OVA—this took the form of a 1 hour aerosol exposure of OVA (10 μg). The negative control animals received, no sensitization and no challenge. The positive controls were sensitized and challenged but were either given no further treatment or were treated with vehicle (saline). Test compounds (PPS and the sulfated xylan pentasaccharide) and vehicle were administered by intratracheal administration as an aqueous microspray using a Penn Century device. The device used was the FMJ250 high pressure syringe and a 1A-1C microspray delivery tube. The particle size delivery goes up to 32 μm. During the study the volume delivered was 100 ul for all test formulations. The test compounds were administered 30 min before challenge with OVA. The animals underwent surgery 24 hours after challenge to insert a cannula into the trachea, the cannula was connected to the instrumentation which measured pressure and changes in airflow. After surgery the animals were allowed to stabilize for 10 min before baseline readings were taken. Bronchoconstriction was evoked with aerosolized methacholine (10 mg/ml and 30 mg/ml) for 20 seconds. The difference between baseline readings and that obtained after methacholine were used to calculate Cdyn and RL. Thus, measurements of lung function were taken approximately 25 hours after the drug was administered. Both pentosan polysulfate and the sulfated xylan pentasaccharide when administered at 10 mg/kg were effective in reducing the airway hyper-reactivity readings. Their efficacy was approximately equivalent to that usually seen with 7.5 mg/kg of dexamethasone in this model.

[2] = target: T1, Human leukocyte elastase (Homo sapiens, UniProt P08246); experiment: Elastase assay with fluorogenic substrate; type: biochemical; conditions: fluorogenic substrate MeOSuc-Ala-Ala-Pro-Val-amido-methylcoumarin, pH 7.4, 37° C., 60 minutes; read-out: IC50, inhibition of human leukocyte elastase activity
T1 sequence (P08246 30-267): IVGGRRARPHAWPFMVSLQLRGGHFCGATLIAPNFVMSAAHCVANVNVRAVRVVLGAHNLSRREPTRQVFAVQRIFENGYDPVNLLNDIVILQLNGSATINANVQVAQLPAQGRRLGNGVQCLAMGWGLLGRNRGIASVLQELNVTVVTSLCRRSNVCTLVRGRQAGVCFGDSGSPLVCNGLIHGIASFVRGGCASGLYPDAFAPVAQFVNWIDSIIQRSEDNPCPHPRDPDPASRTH
Description: Elastase is a protein that is a potential target for the treatment of COPD. Elastase assays were performed in 96-well plastic microplates for easy quantification by the fluorescent plate reader. Human leukocyte elastase (5 nM/well) was incubated in the presence of absence of pentosan polysulfate, or other sulfated polysaccharides, with the fluorogenic substrate MeOSuc-Ala-Ala-Pro-Val-amido-methylcoumarin (20 μM/well) in a sodium phosphate buffer, pH 7.4. The mixture was incubated at 37° C. for 60 minutes before the reaction was stopped by the addition of 10 μl/well of […] acetic acid and the mixture transferred to a 96-well microplate with fluorescence being measured using an excitation wavelength of 355 nm and an emission wavelength of 460 nm. Various concentrations of inhibitors were used to allow the calculation of the concentration of polysaccharide required to inhibit enzyme activity by 50% (IC50).

[3] = target: T2, recombinant human eotaxin (CCL11) (Homo sapiens, UniProt P51671); experiment: BIAcore inhibition of eotaxin-1 binding to immobilized heparin; conditions: BIAcore chip, FIG. 3D
T2 construct: host or cells: E. coli
T2 sequence (P51671 24-97): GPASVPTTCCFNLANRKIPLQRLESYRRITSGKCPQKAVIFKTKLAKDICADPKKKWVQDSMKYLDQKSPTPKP
Source text: (§1) The optical phenomenon of surface plasmon resonance is used to monitor physical interactions between molecules. Passing a solution of a potential protein ligand (e.g. IL-4, IL-5 or eotaxin) over a sensor surface to which a target (e.g. heparin) is coupled monitors the real-time binding of protein ligands to the immobilized target. Detection is achieved by measuring refractive index changes very close to the sensor surface. When the refractive index is altered, the angle at which plasmon resonance occurs changes and this change directly correlates with the amount of protein interacting with the surface. A BIAcore 2000 is conveniently used. […]
(§2) Biotinylated heparin is immobilized on the biosensor chip. […] Solutions containing potential protein ligands of interest are injected over the sensor chip surface, and the binding is measured in real time (Fernig, In: Proteoglycan protocols, Ed. R. V. Iozzo, Humana Press, Totowa, N.J., USA, 2001). Baculovirus expressed recombinant human IL-4 (rhIL-4) and baculovirus expressed recombinant human IL-5 (rhIL-5) readily bind to heparin immobilized by this method (see PCT/AU2005/000551). […] Similarly, recombinant human eotaxin (CCL11) expressed in E. coli binds readily to immobilized heparin and binding is specific as there is little eotaxin binding to sensor chips lacking heparin. […]

[4] = target: T3, recombinant human IL-5 (rhIL-5) (Homo sapiens, UniProt P05113); experiment: BIAcore inhibition of IL-5 binding to immobilized heparin; conditions: BIAcore chip, titration, FIG. 3B
T3 construct: made in house; host or cells: baculovirus expression system
T3 sequence (P05113 20-134): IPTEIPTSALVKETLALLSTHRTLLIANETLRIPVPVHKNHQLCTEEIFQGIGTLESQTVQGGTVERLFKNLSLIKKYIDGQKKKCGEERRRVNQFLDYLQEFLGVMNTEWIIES
Source text: as §1, §2

| Compound | Cdyn, % increase from that of the positive control ([1]; MCh 10 mg/ml) | RL, % decrease from that of the positive control ([1]; MCh 10 mg/ml) | Cdyn, % increase from that of the positive control ([1]; MCh 30 mg/ml) | RL, % decrease from that of the positive control ([1]; MCh 30 mg/ml) | IC50 [2] | IC50 [3] | IC50 [4] |
| --- | --- | --- | --- | --- | --- | --- | --- |
| C[C@@H]1C[C@H]2[C@@H]3CCC4=CC(=O)C=C[C@]4(C)[C@@]3(F)[C@@H](O)C[C@]2(C)[C@@]1(O)C(=O)CO [Dexamethasone] | 76.5% ** | 93.9% ** | 84.8% **^ | 86% ** |  |  |  |
| heparin |  |  |  |  | ~200 nM | ~160 nM | 30 to 100 nM |
